Experimental data taken from the supplement of paper PMC10307832.

Assays:
Assay in all cases: relative viability (nuclei count vs DMSO), 5 days (fraction); higher = more cells survive
Salubrinal + Decitabine = compound: O=C(/C=C/c1ccccc1)NC(NC(=S)Nc1cccc2cccnc12)C(Cl)(Cl)Cl [Salubrinal] + Nc1ncn([C@H]2C[C@H](O)[C@@H](CO)O2)c(=O)n1 [Decitabine] (partner 2 µM)
Outline: (§1)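 For relative viability, nuclei counts in treated wells were divided by those in vehicle wells. Lung cancer cell lines had been pin-tool dosed in 1536-well plates the day after seeding and cultured for 5 days, then fixed and stained in one step (final 0.05% Triton X-100, 1% formaldehyde, 1 ug/ml Hoechst) and imaged at 4×. Doses were one drug alone or a fixed anchor-drug dose plus five library-drug doses (not always all listed) in √10 steps, and values are duplicate-plate medians.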

Salubrinal + Trametinib = compound: O=C(/C=C/c1ccccc1)NC(NC(=S)Nc1cccc2cccnc12)C(Cl)(Cl)Cl [Salubrinal] + CC(=O)Nc1cccc(-n2c(=O)n(C3CC3)c(=O)c3c(Nc4ccc(I)cc4F)n(C)c(=O)c(C)c32)c1 [Trametinib] (partner 0.02 µM)
Outline: as §1

Salubrinal + Linsitinib = compound: O=C(/C=C/c1ccccc1)NC(NC(=S)Nc1cccc2cccnc12)C(Cl)(Cl)Cl [Salubrinal] + C[C@]1(O)C[C@@H](c2nc(-c3ccc4ccc(-c5ccccc5)nc4c3)c3c(N)nccn32)C1 [Linsitinib] (partner 1 µM)
Outline: as §1

[1] = compound: Cc1ccc2nc(NCCN)c3ncc(C)n3c2c1 + CCNC(=O)c1noc(-c2cc(C(C)C)c(O)cc2O)c1-c1ccc(CN2CCOCC2)cc1 [Luminespib] (partner 0.01 µM)
Outline: as §1

| Cell Line | relative viability (Salubrinal + Decitabine; first compound 0.08 µM) | relative viability (Salubrinal + Decitabine; first compound 0.253 µM) | relative viability (Salubrinal + Decitabine; first compound 0.8 µM) | relative viability (Salubrinal + Decitabine; first compound 2.53 µM) | relative viability (Salubrinal + Decitabine; first compound 8 µM) | relative viability (Salubrinal + Trametinib; first compound 0.08 µM) | relative viability (Salubrinal + Trametinib; first compound 0.253 µM) | relative viability (Salubrinal + Trametinib; first compound 0.8 µM) | relative viability (Salubrinal + Trametinib; first compound 2.53 µM) | relative viability (Salubrinal + Trametinib; first compound 8 µM) | relative viability (Salubrinal + Linsitinib; first compound 0.08 µM) | relative viability (Salubrinal + Linsitinib; first compound 0.253 µM) | relative viability (Salubrinal + Linsitinib; first compound 0.8 µM) | relative viability (Salubrinal + Linsitinib; first compound 8 µM) | relative viability ([1]; first compound 0.04 µM) | relative viability ([1]; first compound 0.1265 µM) | relative viability ([1]; first compound 0.4 µM) | relative viability ([1]; first compound 1.265 µM) | relative viability ([1]; first compound 4 µM) | relative viability (Salubrinal + Linsitinib; first compound 2.53 µM) |
| --- | --- | --- | --- | --- | --- | --- | --- | --- | --- | --- | --- | --- | --- | --- | --- | --- | --- | --- | --- | --- |
| LCLC-97TM1 | 0.248 | 0.223 | 0.234 | 0.21 | 0.257 | 0.186 | 0.185 | 0.209 | 0.17 | 0.235 | 0.222 | 0.214 | 0.221 | 0.243 | 0.761 | 0.713 | 0.752 | 0.699 | 0.678 | – |
| LCLC-103H | 0.772 | 0.696 | 0.718 | 0.782 | 0.608 | 0.737 | 0.682 | 0.691 | 0.738 | 0.673 | 1.14 | 1 | 1.02 | 1.01 | 0.887 | 0.927 | 0.931 | 0.925 | 0.858 | 1.22 |
| LK-2 | 0.269 | 0.306 | 0.399 | 0.385 | 0.266 | 0.918 | 0.812 | 0.819 | 0.722 | 0.744 | 0.558 | 0.521 | 0.762 | 0.723 | 0.198 | 0.194 | 0.182 | 0.185 | 0.197 | 0.757 |
| LOU-NH91 | 0.837 | 0.842 | 0.817 | 0.845 | 0.777 | 0.728 | 0.822 | 0.788 | 0.824 | 0.757 | 1.02 | 0.949 | 0.996 | 0.93 | 0.342 | 0.31 | 0.31 | 0.36 | 0.318 | 0.955 |
| LU99A | 1.05 | 0.844 | 0.938 | 0.951 | 0.757 | 0.589 | 0.515 | 0.614 | 0.548 | 0.56 | 0.611 | 0.545 | 0.579 | 0.515 | 0.274 | 0.28 | 0.242 | 0.254 | 0.261 | 0.59 |
| LXF-289 | 0.338 | 0.382 | 0.357 | 0.43 | 0.405 | 0.747 | 0.59 | 0.7 | 0.702 | 0.681 | 1.04 | 0.861 | 1.03 | 0.893 | 0.633 | 0.816 | 0.653 | 0.706 | 0.618 | 0.968 |
| NCI-H23 | 0.315 | 0.316 | 0.304 | 0.312 | 0.291 | 0.437 | 0.423 | 0.479 | 0.334 | 0.375 | 0.576 | 0.473 | 0.516 | 0.535 | 0.207 | 0.227 | – | 0.201 | 0.217 | 0.67 |
| NCI-H322M | 0.785 | 0.648 | 0.684 | 0.716 | 0.656 | 0.542 | 0.517 | 0.487 | 0.565 | 0.521 | 1.1 | 0.858 | 0.927 | 0.823 | 0.908 | 0.845 | 0.961 | 0.858 | 0.734 | 0.891 |
| NCI-H358 | 0.24 | 0.219 | 0.234 | 0.188 | 0.202 | 0.145 | 0.139 | 0.135 | 0.143 | 0.136 | 0.77 | 0.693 | 0.76 | 0.637 | 0.309 | 0.373 | 0.236 | 0.326 | 0.313 | 0.773 |
| NCI-H441 | 0.235 | 0.243 | 0.265 | 0.269 | 0.222 | 0.48 | 0.415 | 0.48 | 0.507 | 0.462 | 0.663 | 0.438 | 0.643 | 0.517 | 0.285 | 0.482 | 0.312 | 0.465 | 0.322 | 0.649 |
| NCI-H460 | 0.517 | 0.461 | 0.475 | 0.379 | 0.444 | 0.114 | 0.24 | 0.125 | 0.121 | 0.126 | 1.31 | 0.586 | 1 | 0.564 | 0.0414 | 0.0267 | 0.0351 | 0.0331 | 0.0182 | 0.813 |
| NCI-H520 | 0.551 | 0.579 | 0.575 | 0.501 | 0.576 | 0.853 | 0.676 | 0.843 | 0.633 | 0.685 | 1.16 | 0.688 | 1.25 | 1.17 | 0.204 | 0.216 | 0.231 | 0.191 | 0.235 | 1.12 |
| NCI-H596 | 1.1 | 1.02 | 1.18 | 0.969 | 0.863 | 0.851 | 0.745 | 0.747 | 0.817 | 0.675 | 1.07 | 0.936 | 1.17 | 0.903 | 1.12 | 0.959 | 0.967 | 0.215 | 1.05 | 1.1 |
